Experimental data taken from US7829665B2 (priority 2005, dated 2010).
Read-outs that look alike come from different tables or passages of the source.

Key:
[1] = molecular target: T1, full-length NS3/NS4A-2 (HCV NS3 protease) (Hepatitis C virus genotype 1a, UniProt P27958); assay: NS3-NS4 protease assay / NS3 inhibition assay (RETS1 substrate, fluorescence kinetic read); type: biochemical
T1 construct: Recombinant E. coli or Baculovirus full-length NS3 was diluted to 3.33 μM with assay buffer; made in house; host or cells: E. coli or baculovirus (BV) expression system
T1 sequence (P27958 1027-1657): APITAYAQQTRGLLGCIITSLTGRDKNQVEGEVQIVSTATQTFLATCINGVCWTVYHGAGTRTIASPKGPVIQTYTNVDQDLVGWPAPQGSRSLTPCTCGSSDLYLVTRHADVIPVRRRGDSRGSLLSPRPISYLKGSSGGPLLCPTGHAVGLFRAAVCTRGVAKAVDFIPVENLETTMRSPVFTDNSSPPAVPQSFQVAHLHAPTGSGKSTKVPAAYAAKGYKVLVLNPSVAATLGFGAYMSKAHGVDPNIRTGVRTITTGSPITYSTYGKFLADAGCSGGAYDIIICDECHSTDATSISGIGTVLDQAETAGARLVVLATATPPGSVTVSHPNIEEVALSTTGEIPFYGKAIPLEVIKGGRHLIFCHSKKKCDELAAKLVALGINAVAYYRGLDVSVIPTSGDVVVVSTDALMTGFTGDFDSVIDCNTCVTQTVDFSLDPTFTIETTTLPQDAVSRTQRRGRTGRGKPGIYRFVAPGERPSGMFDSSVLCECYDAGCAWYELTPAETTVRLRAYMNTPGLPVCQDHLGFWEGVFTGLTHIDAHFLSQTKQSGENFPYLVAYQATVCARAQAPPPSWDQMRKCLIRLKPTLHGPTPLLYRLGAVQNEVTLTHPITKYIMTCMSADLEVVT
Procedure, shortened: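 Full-length NS3 from E. coli (2 nM in assay) or baculovirus (3 nM) was precomplexed with excess NS4A-2 peptide, then preincubated 10 min at room temperature with serially diluted compounds starting at 50 microM. Reaction was started with RETS1 substrate at 8 μM before addition and read kinetically for 30 min (ex 335/em 495 nm). Four-parameter IC50s were converted to Ki by Cheng-Prusoff using Km 2.03 μM (E. coli) or 1.74 μM (BV).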

[2] = system: HCV sub-genomic replicon in GS4.3 cells (HuH-7 hepatoma cells); assay: Quantitation by ELISA of Neomycin phosphotransferase II (NPTII) in the HCV sub-genomic replicon, GS4.3; type: cell-based, hepatitis C virus; conditions: Hepatitis C virus, Huh-7
Description: The HCV sub-genomic replicon (1377/NS3-3′, accession No. AJ242652), stably maintained in HuH-7 hepatoma cells, was created by Lohmann et al. Science 285: 110-113 (1999). The replicon-containing cell culture, designated GS4.3, was obtained from Dr. Christoph Seeger of the Institute for Cancer Research, Fox Chase Cancer Center, Philadelphia, Pa.
GS4.3 cells were maintained at 37° C., 5% CO2, in DMEM (Gibco 11965-092) supplemented with L-glutamine 200 mM (100×) (Gibco25030-081), non-essential amino acids (NEAA) (Biowhittaker 13-114E), heat-inactivated (HI) Fetal Bovine Serum (FBS) (Hyclone SH3007.03) and 750 μg/ml geneticin (G418) (Gibco 10131-035). Cells were sub-divided 1:3 or 4 every 2-3 days.
24 h prior to the assay, GS4.3 cells were collected, counted, and plated in 96-well plates (Costar 3585) at 7500 cells/well in 100 μl standard maintenance medium (above) and incubated in the conditions above. To initiate the assay, culture medium was removed, cells were washed once with PBS (Gibco 10010-023) and 90 μl Assay Medium (DMEM, L-glutamine, NEAA, 10% HI FBS, no G418) was added. Inhibitors were made as a 10× stock in Assay Medium, (3-fold dilutions from 10 μM to 56 pM final concentration, final DMSO concentration 1%), 10 μl were added to duplicate wells, plates were rocked to mix, and incubated as above for 72 h.
An NPTII Elisa kit was obtained from AGDIA, Inc. (Compound direct ELISA test system for Neomycin Phosphotransferase II, PSP 73000/4800). Manufacturer's instructions were followed, with some modifications. 10×PEB-1 lysis buffer was made up to include 500 μM PMSF (Sigma P7626, 50 mM stock in isopropanol). After 72 h incubation, cells were washed once with PBS and 150 μl PEB-1 with PMSF was added per well. Plates were agitated vigorously for 15 minutes, room temperature, then frozen at −70° C. Plates were thawed, lysates were mixed thoroughly, and 100 μl were applied to an NPTII Elisa plate. A standard curve was made. Lysate from DMSO-treated control cells was pooled, serially diluted with PEB-1 with PMSF, and applied to duplicate wells of the ELISA plate, in a range of initial lysate amount of 150 ul-2.5 ul. In addition, 100 μl buffer alone was applied in duplicate as a blank. Plates were sealed and gently agitated at room temperature for 2 h. Following capture incubation, the plates were washed 5×300 μl with PBS-T (0.5% Tween-20, PBS-T was supplied in the ELISA kit). For detection, a 1× dilution of enzyme conjugate diluent MRS-2 (5×) was made in PBS-T, into which 1:100 dilutions of enzyme conjugates A and B were added, as per instructions. Plates were resealed, and incubated with agitation, covered, room temperature, for 2 h. The washing was then repeated and 100 μl of room temperature TMB substrate was added. After approximately 30 minutes incubation (room temperature, agitation, covered), the reaction was stopped with 50 μl 3M sulfuric acid. Plates were read at 450 nm on a Molecular Devices Versamax plate reader.
Inhibitor effect was expressed as a percentage of DMSO-treated control signal, and inhibition curves were calculated using a 4-parameter equation: y=A+((B−A)/(1+((C/x)^D))), where C is half-maximal activity or EC50.

[3] = recombinant E. coli or Baculovirus full-length NS3 with NS4A-2, read-out: NS3-NS4 IC50
[4] = GS4.3 cells, 72 h incubation, NPTII ELISA, read-out: Replicon EC50

SMILES	IC50 [1, 3]	EC50 [2, 4]	IC50 [1]	EC50 ([2]; Table 26, read-out: EC50)
CCN(C)S(=O)(=O)NC(=O)[C@@]12C[C@H]1/C=C\CCCCC[C@H](NC(=O)OC(C)(C)C)C(=O)N1C[C@H](OC(=O)N3Cc4ccccc4C3)C[C@H]1C(=O)N2 [Compound 200]	< 100 nM	< 100 nM	–	–
CC(C)(C)OC(=O)N[C@H]1CCN(CC(F)(F)F)CC/C=C\[C@@H]2C[C@@]2(C(=O)NS(=O)(=O)C2CC2)NC(=O)[C@@H]2C[C@@H](OC(=O)N3Cc4cccc(F)c4C3)CN2C1=O [Compound 1032]	< 100 nM	< 100 nM	–	–
O=C(N[C@H]1CCCCC/C=C\[C@@H]2C[C@@]2(C(=O)NCC2CC2)NC(=O)[C@@H]2C[C@@H](OC(=O)N3CCc4ccccc4C3)CN2C1=O)OC1CCCC1 [Compound 644]	< 100 nM	< 1000 nM	–	–
CC(C)(C)OC(=O)N[C@H]1CCCCC/C=C\[C@@H]2C[C@@]2(C(=O)NC(=O)c2ccccc2)NC(=O)[C@@H]2C[C@@H](OC(=O)N3Cc4ccccc4C3)CN2C1=O [Compound 705]	< 100 nM	< 100 nM	–	–
CC(C)(C)NC(=S)N[C@H]1CCCCC/C=C\[C@@H]2C[C@@]2(C(=O)NS(=O)(=O)C2CC2)NC(=O)[C@@H]2C[C@@H](OC(=O)N3Cc4cccc(F)c4C3)CN2C1=O [Compound 239]	< 100 nM	< 100 nM	–	–
O=C1N[C@]2(C(=O)NS(=O)(=O)C3CC3)C[C@H]2/C=C\CCCCC[C@H](NC(=O)N2CCCC2)C(=O)N2C[C@H](OC(=O)N3Cc4cccc(F)c4C3)C[C@@H]12 [Compound 243]	< 100 nM	< 100 nM	–	–
CC(C)(C)OC(=O)N[C@H]1CCCCC/C=C\[C@@H]2C[C@@]2(C(=O)NS(=O)(=O)c2cc(Cl)sc2Cl)NC(=O)[C@@H]2C[C@@H](OC(=O)N3Cc4cccc(F)c4C3)CN2C1=O [Compound 162]	< 100 nM	< 100 nM	–	–
CC(C)(C)OC(=O)N[C@H]1CCOCC/C=C\[C@@H]2C[C@@]2(C(=O)NS(=O)(=O)C2CC2)NC(=O)[C@@H]2C[C@@H](OC(=O)N3Cc4cccc(F)c4C3)CN2C1=O [Compound 1027, (2R,6S,13aS,14aR,16aS,Z)-6-(tert-butoxycarbonylamino)-14a-(cyclopropylsulfonylcarbamoyl)-5,16-dioxo-2,3,5,6,7,8,10,11,13a,14,14a,15,16,16a-tetradecahydro-1H-cyclopropa(j)pyrrolo[1,2-f][1,6,9]oxadiazacyclopentadecin-2-yl 4-fluoroisoindoline-2-carboxylate]	–	< 100 nM	< 100 nM	–
CCCC1(S(=O)(=O)NC(=O)[C@@]23C[C@H]2/C=C\CCCCC[C@H](NC(=O)OC(C)(C)C)C(=O)N2C[C@H](OC(=O)N4Cc5ccccc5C4)C[C@H]2C(=O)N3)CC1 [Compound 104]	< 100 nM	< 100 nM	–	–
O=C(Cc1ccc(Cl)cc1)N[C@H]1CCCCC/C=C\[C@@H]2C[C@@]2(C(=O)NS(=O)(=O)C2CC2)NC(=O)C2CCCN2C1=O (stereo partly drawn) [Compound 2143]	> 10000 nM	–	–	> 10000 nM
O=C1N[C@]2(C(=O)NS(=O)(=O)C3CC3)C[C@H]2/C=C\CCCCC[C@H](NC(=S)N2CCCC2)C(=O)N2C[C@H](OC(=O)N3Cc4cccc(F)c4C3)C[C@@H]12 [Compound 244]	< 100 nM	< 100 nM	–	–
CC(C)(C)OC(=O)N[C@H]1CCCCC/C=C\[C@@H]2C[C@@]2(C(=O)NS(=O)(=O)C2CC2)NC(=O)[C@@H]2C[C@@H](OC(=O)N3Cc4cccc(N5CCOCC5)c4C3)CN2C1=O [Compound 158]	< 100 nM	< 100 nM	–	–
CC(=O)N[C@H](C(=O)N[C@H]1CCCCC/C=C\[C@@H]2C[C@@]2(C(=O)NS(=O)(=O)C2CC2)NC(=O)[C@@H]2C[C@@H](OC(=O)N3Cc4cccc(Cl)c4C3)CN2C1=O)C1CCCCC1 [Compound 262]	< 100 nM	< 1000 nM	–	–
O=C1N[C@]2(C(=O)NS(=O)(=O)C3CC3)C[C@H]2/C=C\CCCCC[C@H](NC2CCC2)C(=O)N2C[C@H](OC(=O)N3Cc4cccc(F)c4C3)C[C@@H]12 [Compound 907]	< 100 nM	< 1000 nM	–	–
CN(C)S(=O)(=O)NC(=O)[C@@]12C[C@H]1CCCCC(F)(F)CC[C@H](NC(=O)OC(C)(C)C)C(=O)N1C[C@H](OC(=O)N3Cc4cccc(F)c4C3)C[C@H]1C(=O)N2 [Compound 1016]	< 100 nM	< 100 nM	–	–
O=C(N[C@H]1CCCCC/C=C\[C@@H]2C[C@@]2(C(=O)NS(=O)(=O)C2CC2)NC(=O)[C@@H]2C[C@@H](OC(=O)N3Cc4cccc(Cl)c4C3)CN2C1=O)OC1CCCC1 [Compound 141]	< 100 nM	< 100 nM	–	–
O=C(N[C@H]1CCCCC/C=C\[C@@H]2C[C@@]2(C(=O)NS(=O)(=O)N2CC(F)(F)C2)NC(=O)C2C[C@@H](OC(=O)N3Cc4cccc(Cl)c4C3)CN2C1=O)OC1CCCC1 (stereo partly drawn) [Compound 228]	< 100 nM	< 100 nM	–	–
O=C1N[C@]2(C(=O)NS(=O)(=O)C3CC3)C[C@H]2/C=C\CCCCC[C@H](Nc2c(N3CCC3)c(=O)c2=O)C(=O)N2C[C@H](OC(=O)N3CCc4ccccc4C3)C[C@@H]12 [Compound 242]	< 100 nM	< 10000 nM	–	–
CC(C)(C)OC(=O)N[C@H]1CCCCC/C=C\[C@@H]2C[C@@]2(C(=O)NCC2CC2)NC(=O)[C@@H]2C[C@@H](OC(=O)N3Cc4cccc(Cl)c4C3)CN2C1=O [Compound 627]	< 100 nM	< 100 nM	–	–
N[C@H]1CCC(F)(F)CC/C=C\[C@@H]2C[C@@]2(C(=O)NS(=O)(=O)C2CC2)NC(=O)[C@@H]2C[C@@H](OC(=O)N3Cc4ccccc4C3)CN2C1=O [Compound 1011]	< 100 nM	< 1000 nM	–	–
N[C@H]1CCCCC/C=C\[C@@H]2C[C@@]2(C(=O)NS(=O)(=O)C2CC2)NC(=O)[C@@H]2C[C@@H](OC(=O)N3Cc4cccc(F)c4C3)CN2C1=O [Compound 107]	< 100 nM	< 10000 nM	–	–
CC(C)(C)OC(=O)N[C@H]1CCCCC/C=C\[C@@H]2C[C@@]2(C(=O)NS(=O)(=O)c2cnccc2Cl)NC(=O)[C@@H]2C[C@@H](OC(=O)N3Cc4ccccc4C3)CN2C1=O [Compound 108]	< 100 nM	< 10000 nM	–	–
CC(C)(C)OC(=O)N[C@H]1CCCCC/C=C\[C@@H]2C[C@@]2(C(=O)NS(=O)(=O)C2CC2)NC(=O)[C@@H]2C[C@@H](OC(=O)N3Cc4ccc(C(F)(F)F)cc4C3)CN2C1=O [Compound 112]	< 100 nM	< 100 nM	–	–
CC(C)(O)C(=O)N[C@H]1CCCCC/C=C\[C@@H]2C[C@@]2(C(=O)NS(=O)(=O)C2CC2)NC(=O)[C@@H]2C[C@@H](OC(=O)N3Cc4cccc(F)c4C3)CN2C1=O [Compound 246]	< 100 nM	< 1000 nM	–	–
CC(C)(C)OC(=O)N[C@H]1CCC(F)(F)CC/C=C\[C@@H]2C[C@@]2(C(=O)NS(=O)(=O)C2CC2)NC(=O)[C@@H]2C[C@@H](OC(=O)N3Cc4cccc(F)c4C3)CN2C1=O [Compound 1002]	< 100 nM	< 100 nM	–	–
NC(=S)N[C@H]1CCCCC/C=C\[C@@H]2C[C@@]2(C(=O)NS(=O)(=O)C2CC2)NC(=O)[C@@H]2C[C@@H](OC(=O)N3Cc4cccc(F)c4C3)CN2C1=O [Compound 923]	< 100 nM	< 1000 nM	–	–
CC(C)(C)OC(=O)N[C@H]1CCCCC/C=C\[C@@H]2C[C@@]2(C(=O)NS(=O)(=O)C2CC2)NC(=O)[C@@H]2C[C@@H](OC(=O)N3CCc4c(Cl)ccc(Cl)c4C3)CN2C1=O [Compound 256]	< 100 nM	< 100 nM	–	–
